Measured values reported in patent US8658791B2, “2-substituted-6-amino-5-alkyl, alkenyl or alkynyl-4-pyrimidinecarboxylic acids and 6-substituted-4-amino-3-alkyl, alkenyl or alkynyl picolinic acids and their use as herbicides” (Dow AgroSciences, LLC, priority 2007, dated 2014).

Tests used:
Format in all cases: in vivo
[1] = system: barnyardgrass (Echinochloa crus-galli); experiment: General postemergence herbicidal activity, ECHCG; conditions: Echinochloa crus-galli, post-emergence, 336 h, postemergence spray, visual score after 14 days, 0 = no injury, 100 = complete kill, read-out: Post-emergent Weed Control ECHCG; for pest or weed control at 140 g/ha: 140 g ai/ha; for pest or weed control at 280 g/ha: 280 g ai/ha
Experimental: (§1) Seeds or nutlets of the desired test plant species were planted in Sun Gro MetroMix® 306 planting mixture, which typically has a pH of 6.0 to 6.8 and an organic matter content of about 30 percent, in plastic pots with a surface area of 103 square centimeters. When required to ensure good germination and healthy plants, a fungicide treatment and/or other chemical or physical treatment was applied. The plants were grown for 7-21 days in a greenhouse with an approximate 15 hour photoperiod which was maintained at about 23-29° C. during the day and 22-28° C. during the night. Nutrients and water were added on a regular basis and supplemental lighting was provided with overhead metal halide 1000-Watt lamps as necessary. The plants were employed for testing when they reached the first or second true leaf stage.
(§2) A weighed amount, determined by the highest rate to be tested, of each test compound was placed in a 25 mL glass vial and was dissolved in 4 mL of a 97:3 v/v (volume/volume) mixture of acetone and dimethyl sulfoxide (DMSO) to obtain concentrated stock solutions. […] The concentrated stock solutions obtained were diluted with 20 mL of an aqueous mixture containing acetone, water, isopropyl alcohol, DMSO, Atplus 411F crop oil concentrate, and Triton® X-155 surfactant in a 48.5:39:10:1.5:1.0:0.02 v/v ratio to obtain spray solutions containing the highest application rates. Additional application rates were obtained by serial dilution of 12 mL of the high rate solution into a solution containing 2 mL of 97:3 v/v (volume/volume) mixture of acetone and dimethyl sulfoxide (DMSO) and 10 mL of an aqueous mixture containing acetone, water, isopropyl alcohol, DMSO, Atplus 411F crop oil concentrate, and Triton X-155 surfactant in a 48.5:39:10:1.5:1.0:0.02 v/v ratio to obtain 1/2X, 1/4X, 1/8X and 1/16X rates of the high rate. Compound requirements are based upon a 12 mL application volume at a rate of 187 L/ha. Formulated compounds were applied to the plant material with an overhead Mandel track sprayer equipped with a 8002E nozzles calibrated to deliver 187 L/ha over an application area of 0.503 square meters at a spray height of 18 inches (43 cm) above the average plant canopy height. Control plants were sprayed in the same manner with the solvent blank.
(§3) The treated plants and control plants were placed in a greenhouse as described above and watered by sub-irrigation to prevent wash-off of the test compounds. After 14 days, the condition of the test plants as compared with that of the untreated plants was determined visually and scored on a scale of 0 to 100 percent where 0 corresponds to no injury and 100 corresponds to complete kill.

[2] = system: velvetleaf (Abutilon theophrasti); experiment: General postemergence herbicidal activity, ABUTH; conditions: Abutilon theophrasti, post-emergence, 336 h, postemergence spray, visual score after 14 days, 0 = no injury, 100 = complete kill, read-out: Post-emergent Weed Control ABUTH; for pest or weed control at 140 g/ha: 140 g ai/ha; for pest or weed control at 280 g/ha: 280 g ai/ha
Experimental: as §1, §2, §3

rice (Oryza sativa) = experiment: General postemergence herbicidal activity, ORYSA; conditions: Oryza sativa, post-emergence, 336 h, postemergence spray, visual score after 14 days, 0 = no injury, 100 = complete kill, read-out: Post-emergent Weed Control ORYSA; for plant injury at 140 g/ha: 140 g ai/ha; for plant injury at 280 g/ha: 280 g ai/ha
Experimental: as §1, §2, §3

[3] = system: lambsquarter (Chenopodium album); experiment: General postemergence herbicidal activity, CHEAL; conditions: Chenopodium album, post-emergence, 336 h, postemergence spray, visual score after 14 days, 0 = no injury, 100 = complete kill, read-out: Post-emergent Weed Control CHEAL; for pest or weed control at 140 g/ha: 140 g ai/ha; for pest or weed control at 280 g/ha: 280 g ai/ha
Experimental: as §1, §2, §3

[4] = system: wild poinsettia (Euphorbia heterophylla); experiment: General postemergence herbicidal activity, EPHHL; conditions: Euphorbia heterophylla, post-emergence, 336 h, postemergence spray, visual score after 14 days, 0 = no injury, 100 = complete kill, read-out: Post-emergent Weed Control EPHHL; for pest or weed control at 140 g/ha: 140 g ai/ha; for pest or weed control at 280 g/ha: 280 g ai/ha
Experimental: as §1, §2, §3

SMILES | pest or weed control at 140 g/ha [1] [%] | pest or weed control at 140 g/ha [2] [%] | plant injury at 140 g/ha (rice (Oryza sativa)) [%] | pest or weed control at 140 g/ha [3] [%] | pest or weed control at 140 g/ha [4] [%] | pest or weed control at 280 g/ha [1] [%] | pest or weed control at 280 g/ha [2] [%] | plant injury at 280 g/ha (rice (Oryza sativa)) [%] | pest or weed control at 280 g/ha [3] [%] | pest or weed control at 280 g/ha [4] [%]
C=C(F)c1c(N)nc(-c2ccc(Cl)c(OC)c2F)nc1C(=O)OC [Compound 9, 6-Amino-2-(4-chloro-2-fluoro-3-methoxyphenyl)-5-(1-fluorovinyl) pyrimidine-4-carboxylic acid methyl ester] | 90 | 90 | 0 | 95 | 100 |  |  |  |  | 
C=C(OCC)c1c(N)nc(-c2ccc(Cl)c(OC)c2F)nc1C(=O)OC [Compound 10, 6-Amino-2-(4-chloro-2-fluoro-3-methoxyphenyl)-5-(1-ethoxyvinyl)pyrimidine-4-carboxylic acid methyl ester] |  |  |  |  |  | 0 | 50 | 0 | 40 | 75
C=Cc1c(N)nc(-c2cc(F)c(Cl)cc2F)nc1C(=O)OC [Compound 12, 6-Amino-2-(4-chloro-2,5-difluorophenyl)-5-vinylpyrimidine-4-carboxylic acid methyl ester] | 50 | 100 | 0 | 100 | 50 |  |  |  |  | 
C=Cc1c(N)nc(-c2cc(C)c(Cl)cc2F)nc1C(=O)OC [Compound 13, 6-Amino-2-(4-chloro-2-fluoro-5-methylphenyl)-5-vinylpyrimidine-4-carboxylic acid methyl ester] |  |  |  |  |  | 0 | 90 | 0 | 100 | 60
C=Cc1c(N)nc(-c2ccc(Cl)c(C(F)F)c2F)nc1C(=O)OC [Compound 15, 6-Amino-2-(4-chloro-3-difluoromethyl-2-fluorophenyl)-5-vinylpyrimidine-4-carboxylic acid methyl ester] | 100 | 100 | 5 | 100 | 100 |  |  |  |  | 
C=Cc1c(N)nc(-c2ccc(Cl)c(F)c2)nc1C(=O)OC [Compound 16, 6-Amino-2-(4-chloro-3-fluorophenyl)-5-vinylpyrimidine-4-carboxylic acid methyl ester] | 0 | 100 | 0 | 95 | 80 |  |  |  |  | 
C=Cc1c(N)nc(-c2ccc(Cl)c(OC(F)F)c2F)nc1C(=O)OC [Compound 17, 6-Amino-2-(4-chloro-3-difluoromethoxy-2-fluorophenyl)-5-vinylpyrimidine-4-carboxylic acid methyl ester] |  |  |  |  |  | 100 | 100 | 0 | 100 | 100
C=Cc1c(N)nc(-c2ccc(Cl)c(F)c2)nc1C(=O)O [Compound 49, 6-Amino-2-(4-chloro-3-fluorophenyl)-5-vinylpyrimidine-4-carboxylic acid] |  | 65 | 0 | 100 | 100 |  |  |  |  | 
C=Cc1c(C(=O)O)nc(-c2ccc(Cl)cc2)c(F)c1N [Compound 61, 4-Amino-6-(4-chlorophenyl)-5-fluoro-3-vinylpyridine-2-carboxylic acid] |  | 100 | 50 | 100 | 95 |  |  |  |  | 
C=Cc1c(N)nc(-c2ccc(Cl)c(OC)c2F)nc1C(=O)OCCCC [Compound 62, 6-Amino-2-(4-chloro-2-fluoro-3-methoxyphenyl)-5-vinyl-pyrimidine-4-carboxylic acid butyl ester] |  | 100 | 25 | 100 | 100 |  |  |  |  | 
